Measurements as given in patent US8343912B2, “Antibiotic compositions for the treatment of gram negative infections” (priority 2008, dated 2013).
“Also recorded” adds a separate entry of the source. Marks after values point to notes of the source that are not given here. Numbered stars: 1 amine (or outer) side, 2 acyl side, 3 side chain; on linkers, the order of the positions; unused ones are H or OH. Bridge positions count the residues as written; N and C are the ends. Square brackets hold non-standard residues; d marks the D form. Peptide text beside a SMILES is read from it. * marks the point of attachment. Octanoyl(6-Me) = CCC(C)CCCCC(=O)*; NH(2-ClPh) = Clc1ccccc1N*; Dab = NCC[CH](N)C(=O)O; CO = O=C([*:1])[*:2]

Legend:
[1] = tested on: P. aeruginosa #44; test: Lung infection in neutropenic mice; type: in vivo; settings: for Log10 CFU/mL lung homogenate ± SD: lungs at 24 h; for ED−3log10 (dose for 3 log10 reduction in bacterial count vs water): lung infection, sc, Compound 5 value corrected for lot potency 711 μg/mg
Procedure: Infection was induced in normal immunocompetent or neutropenic mice by intranasal inoculation of P. aeruginosa #44. […] At 24 hours post-infection, mice were humanely euthanized and the lungs of the mice were removed, homogenized, serially diluted, and plated on agar, to quantitate the bacterial burden.
All of the test compounds were dissolved in sterile water for administration by subcutaneous (sc) injection. […] A series of dilutions of test compounds were prepared in water.
In the lung infection model using P. aeruginosa #44 as the infecting organism, CD-1 mice were made neutropenic by intraperitoneal (ip) administration with 150 mg/kg cyclophosphamide on day-4, followed by a second ip dose of 100 mg/kg cyclophosphamide on day-1. On day 0 a diluted, exponential-phase growing culture of P. aeruginosa #44 corresponding to 1×10^5 or 2.5×10^8 CFU respectively, in 0.1 mL of sterile saline, was inoculated by the intranasal route in mice. Just prior to inoculation, mice were anaesthetized with 60 mg/kg pentobarbital, ip. The actual concentration of bacteria in the inoculum was confirmed by determination of viable counts by dilution plating on tryptic soy agar plates. The number of CFU of bacteria was determined after an incubation of 16 h at 37° C.
Groups of five mice were used for each dose of the test compounds and the vehicle (water) control group. Each group received sc injections of test compounds or vehicle at 1 hour post-infection, and then at 6 hours post-infection for a total of 2 doses. In each study, there were three to five dose groups per test compound.
Eighteen hours after the last injection, the mice were euthanized by asphyxiation with CO2. The lungs were removed aseptically, homogenized in 4 mL of sterile, distilled water and dilution plated on tryptic soy agar plates to quantify bacterial CFU. The number of CFU of bacteria in lungs was determined after an incubation of 16 hours at 37° C. (the CFU per milliliter of homogenate).
The results were expressed as the geometric mean log10 CFU/mL±the standard deviation. The limit of detection was 10 CFU per mL of lung homogenate. Lungs were considered sterile when no CFU were detected on the agar. The efficacy of the test compounds was assessed by comparing the number of log10 CFU/mL measured in the infected and treated mice with control animals treated with water.
Dose response curves of test compounds were generated for each isolate. Regression lines were generated in Microsoft Excel and used to calculate the dose expected to produce a 3 log10 reduction in bacterial count as compared to water-treated group [ED−3 log 10 (mg/kg, sc, BID)].

[2] = tested on: cynomolgus monkeys; test: Comparative 7 day repeat dose safety study, renal toxicity; type: in vivo, cynomolgus monkey; settings: for renal histologic findings: IV infusion; for nephrotoxicity compared with polymyxin B: equivalent antibacterial activity doses (75,000 to 112,500 IU/kg), FIG. 2
Procedure: A comparative 7 day repeat dose safety study in cynomologous monkeys between polymyxin B and Compound 5 was performed.
Animals were 2.52 kg to 3.77 kg and were 4.2 to 5.7 years old. During acclimation, a chronic femoral intravenous catheter was implanted into all animals to permit continuous infusion. The femoral vein catheter was routed subcutaneously to exit through a prepared incision in the interscapular region. Animals were fitted with jackets connected to flexible stainless steel tethers that protected the catheters.
Monkeys were dosed twice or three times daily for seven days with control article (0.9% Sodium Chloride for Injection, USP), 25000 IU/kg Compound 5, 37500 IU/kg Compound 5, or 37500 IU/kg PMB (Alpharma, lot number A1411079). Each administration was given via a targeted 30-minute intravenous infusion.
The following parameters were evaluated: daily clinical observations and qualitative food consumption, body weight (twice prior to the first dosing and at necropsy), urinalysis, hematology, coagulation, serum chemistry, toxicokinetics, gross pathology, organ weights, and histopathology of the kidneys and injection sites, and of the liver and sciatic nerves of control and high dose groups. Animals were evaluated through Study Day 7 and then terminated.
FIG. 2 is a scatter plot showing nephrotoxicity data measured as a cumulative score based upon tubular degeneration, tubular regeneration, tubular dilatation, and tubular casts. Each category was scored on a basis from 0 to 4 based on the severity of each finding.
For comparison of Compound 5 and polymyxin B, the nephrotoxicity was measured as a cumulative score based upon tubular degeneration, tubular regeneration, tubular dilatation, and tubular casts. Each category was scored on a basis from 0 to 4 based on the severity of each finding and individual monkeys are represented in the FIG. 2.

[3] = tested on: 5 different Gram negative pathogens; test: Efficacy in 8 animal models with 5 Gram negative pathogens; type: in vivo; settings: 8 models, mouse and rat
Procedure: Compound 5 was tested for efficacy in 8 models (both mouse models and rat models) with 5 different Gram negative pathogens. […]

[4] = pH of aqueous solution; type: physicochemical; settings: at 5 mg/mL in water
[5] = 4.0 mg/kg BID sc, 1 and 6 h post-infection, water control 6.53

SMILES	Log10 CFU/mL lung homogenate ± SD [1, 5] [Log10 CFU/mL]	Log10 CFU/mL lung homogenate ± SD ([1]; 8.0 mg/kg BID sc) [Log10 CFU/mL]	Log10 CFU/mL lung homogenate ± SD ([1]; 12.0 mg/kg BID sc) [Log10 CFU/mL]	Log10 CFU/mL lung homogenate ± SD ([1]; 16.0 mg/kg BID sc) [Log10 CFU/mL]	Log10 CFU/mL lung homogenate ± SD ([1]; 20.0 mg/kg BID sc) [Log10 CFU/mL]	ED−3log10 (dose for 3 log10 reduction in bacterial count vs water) [1]	renal histologic findings ([2]; 75,000 IU/kg/day, 7 days)	renal histologic findings ([2]; 112,500 IU/kg/day, 7 days)	nephrotoxicity compared with polymyxin B [2]	nephrotoxicity compared with polymyxin B ([2]; listed as compound 5)	models in which efficacy was demonstrated [3]	pH [4]	serum creatinine and BUN concentrations ([2]; 75,000 IU/kg/day, 7 days)	serum creatinine and blood urea nitrogen concentrations ([2]; 112,500 IU/kg/day, 7 days)
CC(C)C[C@@H]1NC(=O)[C@@H](Cc2ccccc2)NC(=O)[C@H](CCN)NC(=O)[C@@H](NC(=O)[C@H](CCN)NC(=O)[C@@H](NC(=O)[C@H](CCN)NC(=O)Nc2ccccc2Cl)[C@@H](C)O)CCNC(=O)[C@H]([C@@H](C)O)NC(=O)[C@H](CCN)NC(=O)[C@H](CCN)NC1=O [Compound 5, (S)-4-amino-N-((2S,3R)-1-((S)-4-amino-1-oxo-1-((3S,6S,9S,12S,15R,18S,21S)-6,9,18-tris(2-aminoethyl)-15-benzyl-3-((R)-1-hydroxyethyl)-12-isobutyl-2,5,8,11,14,17,20-heptaoxo-1,4,7,10,13,16,19-heptaazacyclotricosan-21-ylamino)butan-2-ylamino)-3-hydroxy-1-oxobutan-2-yl)-2-(3-(2-chlorophenyl)ureido)butanamide] ({NH(2-ClPh)-CO}-[Dab]T[Dab][Dab][Dab][dF]L[Dab][Dab]T; lactam 4-C)	5.49 ± 1.27	4.86 ± 1.18	4.13 ± 1.46	2.56 ± 0.34	2.51 ± 0.70	9.05^b mg/kg, BID	very minimal histologic changes	increases in numbers and severity of cortical and medullary tubules containing necrotic or degenerative cells	notably less severe nephrotoxicity; also recorded: markedly less nephrotoxic	reduced renal toxicity	7 out of 8	5.9, at 5 mg/mL in water		
CCC(C)CCCCC(=O)NC(CCN)C(=O)NC(C(=O)NC(CCN)C(=O)NC1CCNC(=O)C(C(C)O)NC(=O)C(CCN)NC(=O)C(CCN)NC(=O)C(CC(C)C)NC(=O)C(Cc2ccccc2)NC(=O)C(CCN)NC1=O)C(C)O (stereo not shown) [Polymyxin B, polymyxin B, reference compound] ({Octanoyl(6-Me)}-[Dab]T[Dab][Dab][Dab]FL[Dab][Dab]T; lactam 4-C; configuration not given here)	6.48 ± 1.59	5.73 ± 1.92	3.47 ± 1.16	2.88 ± 1.07	2.71 ± 1.09	12.97 mg/kg, BID	renal tubular histology similar to findings from animals receiving 112,500 IU/kg/day of Compound 5	involvement of a majority of cortical and some medullary tubules containing necrotic or degenerate cells					mild increases	elevations
